For 18 molecules, T/C results are on record in PubChem BioAssay AID226 (DTP/NCI, 2004).

Where “and” joins values, the source holds several entries; their conditions need not be identical. Identical values can stand only once. Toxic doses and inconclusive results are not listed.

The subject of the assay is B6C3F1 mice, intracerebral ependymoblastoma, median survival T/C. Nature of the assay: NCI In Vivo Anticancer Drug Screen. Data for tumor model Ependymoblastoma (intracerebral) in B6C3F1 mice. The note with it: endpoint: median survival time, higher = longer survival. How it is done: The antitumor activity of compounds was measured in mice bearing transplantable tumors. Survival or tumor size were measured and the results are expressed as the measurement made in the treated group (T) divided by the measurement made in the vehicle treated control group (C). The tumor model used in this assay is Ependymoblastoma (intracerebral) in B6C3F1 mice

[1] abbreviates: dose: 16.0 mg/kg/injection, schedule: Q01DX005 (ip), vehicle: saline with Tween-80.
Where [2] appears, read: dose: 32.0 mg/kg/injection, schedule: Q01DX005 (ip), vehicle: saline with Tween-80.
The mark [3] stands for this setting: dose: 64.0 mg/kg/injection, schedule: Q01DX005 (ip), vehicle: saline with Tween-80.
Setting [4] is: dose: 128.0 mg/kg/injection, schedule: Q01DX005 (ip), vehicle: saline with Tween-80.
[5] abbreviates: dose: 8.0 mg/kg/injection, schedule: Q01DX005 (ip), vehicle: saline with Tween-80.
Where [6] appears, read: dose: 64.0 mg/kg/injection, schedule: Q01DX005 (ip), vehicle: saline.
Setting [7] is: dose: 128.0 mg/kg/injection, schedule: Q01DX005 (ip), vehicle: saline.
The mark [8] stands for this setting: dose: 256.0 mg/kg/injection, schedule: Q01DX005 (ip), vehicle: saline with Tween-80.
Where [9] appears, read: dose: 16.0 mg/kg/injection, schedule: Q01DX005 (ip), vehicle: saline.
Setting [10] is: dose: 32.0 mg/kg/injection, schedule: Q01DX005 (ip), vehicle: saline.

Regarding `CCCCCCC1CC1C(=O)NCCCCCN=C(N)N` (stereo not drawn), the T/C (dose: 10.0 mg/kg/injection, schedule: Q01DX005 (ip), vehicle: Klucel (hydroxypropylcellulose) (HPC)) was 96 % of control; the T/C (dose: 20.0 mg/kg/injection, schedule: Q01DX005 (ip), vehicle: Klucel (hydroxypropylcellulose) (HPC)) is 102 % of control; the T/C (dose: 40.0 mg/kg/injection, schedule: Q01DX005 (ip), vehicle: Klucel (hydroxypropylcellulose) (HPC)) is 101 % of control.

Turning to `CC/C(=C(/CC)c1ccc(O)cc1)c1ccc(O)cc1`, the T/C by setting is: under setting [1], 102 % of control; under setting [2], 102 % of control; under setting [3], 109 % of control; under setting [4], 104 % of control.

For the molecule `OC(CBr)C(O)C(O)C(O)CBr` (stereo not drawn), the T/C is 102 % of control (dose: 2.0 mg/kg/injection, schedule: Q01DX005 (ip), vehicle: Klucel (hydroxypropylcellulose) (HPC)); 106 % of control (dose: 4.0 mg/kg/injection, schedule: Q01DX005 (ip), vehicle: Klucel (hydroxypropylcellulose) (HPC)); 122 % of control (dose: 50.0 mg/kg/injection, schedule: Q01DX005 (ip), vehicle: saline); 97 % of control (dose: 100.0 mg/kg/injection, schedule: Q01DX005 (ip), vehicle: Klucel (hydroxypropylcellulose) (HPC)); 109 % of control (dose: 200.0 mg/kg/injection, schedule: Q01DX005 (ip), vehicle: Klucel (hydroxypropylcellulose) (HPC)); 118 % of control and 195 % of control and 233 % of control (dose: 200.0 mg/kg/injection, schedule: Q01DX005 (ip), vehicle: saline).

Turning to `CCCCCCCCN(C)/N=N/c1nc[nH]c1C(N)=O`, the T/C is 119 % of control under setting [5]; 122 % of control and 123 % of control under setting [1]; 113 % of control under setting [2]; 111 % of control under setting [3].

Take `NCCOCC(N)C(=O)O` (stereo not drawn): the T/C by setting is: (dose: 62.5 mg/kg/injection, schedule: Q01DX005 (ip), vehicle: saline) 93 % of control; (dose: 125.0 mg/kg/injection, schedule: Q01DX005 (ip), vehicle: saline) 95 % of control; (dose: 250.0 mg/kg/injection, schedule: Q01DX005 (ip), vehicle: saline) 98 % of control; (dose: 500.0 mg/kg/injection, schedule: Q01DX005 (ip), vehicle: saline) 103 % of control.

On to `CC(C)NCC(O)COc1cccc2ccccc12` (stereo not drawn), for which the T/C (dose: 4.0 mg/kg/injection, schedule: Q01DX005 (ip), vehicle: saline with Tween-80) is 107 % of control; the T/C (dose: 4.0 mg/kg/injection, schedule: Q01DX009 (ip), vehicle: saline with Tween-80) is 107 % of control; the T/C under setting [5] was 101 % of control; the T/C (dose: 8.0 mg/kg/injection, schedule: Q01DX009 (ip), vehicle: saline with Tween-80) is 101 % of control; the T/C under setting [1] was 112 % of control; the T/C (dose: 16.0 mg/kg/injection, schedule: Q01DX009 (ip), vehicle: saline with Tween-80) is 115 % of control. Besides, the T/C is 107 % of control under setting [2]; 105 % of control (dose: 32.0 mg/kg/injection, schedule: Q01DX009 (ip), vehicle: saline with Tween-80); 107 % of control under setting [3]; 107 % of control (dose: 64.0 mg/kg/injection, schedule: Q01DX009 (ip), vehicle: saline with Tween-80).

On to `CN(C)N=Nc1ccc(C(=O)O)cc1`, for which the T/C under setting [2] is 122 % of control.

Turning to `Nc1nc(SCc2ccccc2Cl)c2ncn(C3OC(CO)C(O)C3O)c2n1` (stereo not drawn), the T/C (dose: 12.5 mg/kg/injection, schedule: Q01DX005 (ip), vehicle: Klucel (hydroxypropylcellulose) (HPC)) was 103 % of control and 104 % of control; the T/C (dose: 25.0 mg/kg/injection, schedule: Q01DX005 (ip), vehicle: Klucel (hydroxypropylcellulose) (HPC)) is 98 % of control; the T/C (dose: 50.0 mg/kg/injection, schedule: Q01DX005 (ip), vehicle: Klucel (hydroxypropylcellulose) (HPC)) is 110 % of control and 119 % of control.

In the case of `O=c1ccn(C2OC(CO)C(O)C2O)c(=O)[nH]1` (stereo not drawn), the T/C is, setting by setting: under setting [3], 113 % of control; under setting [6], 109 % of control; under setting [4], 90 % of control; under setting [7], 94 % of control; under setting [8], 109 % of control; (dose: 256.0 mg/kg/injection, schedule: Q01DX005 (ip), vehicle: saline) 100 % of control. For the same molecule, the T/C runs as follows: (dose: 512.0 mg/kg/injection, schedule: Q01DX005 (ip), vehicle: saline with Tween-80) 99 % of control; (dose: 512.0 mg/kg/injection, schedule: Q01DX005 (ip), vehicle: saline) 94 % of control; (dose: 1024.0 mg/kg/injection, schedule: Q01DX005 (ip), vehicle: saline with Tween-80) 99 % of control; (dose: 1024.0 mg/kg/injection, schedule: Q01DX005 (ip), vehicle: saline) 96 % of control.

Take `[Cl][Pt+2][Cl].[NH-]C1CCC1.[NH-]C1CCC1`: the T/C is 103 % of control (dose: 10.0 mg/kg/injection, schedule: Q01DX005 (ip), vehicle: dextrose); 103 % of control (dose: 20.0 mg/kg/injection, schedule: Q01DX005 (ip), vehicle: dextrose); 90 % of control (dose: 80.0 mg/kg/injection, schedule: Q01DX005 (ip), vehicle: dextrose).

With `Cn1cnc([N+](=O)[O-])c1Sc1nc(N)nc2c1ncn2C1OC(CO)C(O)C1O` (stereo not drawn), the T/C is 109 % of control (dose: 6.25 mg/kg/injection, schedule: Q01DX005 (ip), vehicle: suspension in saline); 115 % of control (dose: 12.5 mg/kg/injection, schedule: Q01DX005 (ip), vehicle: suspension in saline); 107 % of control (dose: 25.0 mg/kg/injection, schedule: Q01DX005 (ip), vehicle: suspension in saline).

Regarding `Nc1nncs1`, the T/C is, setting by setting: (dose: 6.25 mg/kg/injection, schedule: Q01DX009 (ip), vehicle: saline) 91 % of control; (dose: 12.5 mg/kg/injection, schedule: Q01DX009 (ip), vehicle: saline) 96 % of control; (dose: 25.0 mg/kg/injection, schedule: Q01DX009 (ip), vehicle: saline) 102 % of control; (dose: 50.0 mg/kg/injection, schedule: Q01DX009 (ip), vehicle: saline) 115 % of control; under setting [3], 110 % of control; (dose: 100.0 mg/kg/injection, schedule: Q01DX009 (ip), vehicle: saline) 107 % of control.

As for `O=P(NC12CC3CC(CC(C3)C1)C2)(N1CC1)N1CC1`, the T/C (dose: 2.25 mg/kg/injection, schedule: Q01DX005 (ip), vehicle: Klucel (hydroxypropylcellulose) (HPC)) was 108 % of control and 113 % of control; the T/C (dose: 4.5 mg/kg/injection, schedule: Q01DX005 (ip), vehicle: Klucel (hydroxypropylcellulose) (HPC)) is 111 % of control and 117 % of control; the T/C (dose: 9.0 mg/kg/injection, schedule: Q01DX005 (ip), vehicle: Klucel (hydroxypropylcellulose) (HPC)) was 123 % of control; the T/C (dose: 18.0 mg/kg/injection, schedule: Q01DX005 (ip), vehicle: Klucel (hydroxypropylcellulose) (HPC)) was 123 % of control.

`CC(=O)O[C@]1(C(C)=O)CC[C@H]2[C@@H]3C[C@H](C)C4=CC(=O)CC[C@]4(C)[C@H]3CC[C@@]21C`: the T/C reads like this: (dose: 8.0 mg/kg/injection, schedule: Q01DX005 (ip), vehicle: Klucel (hydroxypropylcellulose) (HPC)) 96 % of control and 104 % of control; (dose: 16.0 mg/kg/injection, schedule: Q01DX005 (ip), vehicle: Klucel (hydroxypropylcellulose) (HPC)) 101 % of control and 122 % of control; (dose: 32.0 mg/kg/injection, schedule: Q01DX005 (ip), vehicle: Klucel (hydroxypropylcellulose) (HPC)) 101 % of control and 112 % of control; (dose: 64.0 mg/kg/injection, schedule: Q01DX005 (ip), vehicle: Klucel (hydroxypropylcellulose) (HPC)) 92 % of control and 97 % of control; (dose: 128.0 mg/kg/injection, schedule: Q01DX005 (ip), vehicle: Klucel (hydroxypropylcellulose) (HPC)) 95 % of control and 98 % of control; (dose: 256.0 mg/kg/injection, schedule: Q01DX005 (ip), vehicle: Klucel (hydroxypropylcellulose) (HPC)) 94 % of control and 97 % of control.

Regarding `CCCCN(C)N=Nc1ccc([N+](=O)[O-])cc1C(N)=O`, the T/C by setting is: under setting [2], 114 % of control; under setting [4], 171 % of control; under setting [8], 158 % of control.

`C[CH2][Ge]1([CH2]C)[CH2]CC2(CCN(CCCN(C)C)C2)C[CH2]1`: the T/C by setting is: (dose: 8.0 mg/kg/injection, schedule: Q01DX005 (ip), vehicle: saline) 94 % of control and 103 % of control; under setting [9], 96 % of control and 104 % of control and 107 % of control.

As for `COS(C)(=O)=O`, the T/C was 118 % of control under setting [9], 102 % of control under setting [10] and 100 % of control under setting [6].

Regarding `O=[N+]([O-])O.[Ga]`, the T/C under setting [10] is 107 % of control, the T/C under setting [6] is 100 % of control and the T/C under setting [7] is 105 % of control.
